Measurements: patent US20260091031A1, “CGRP RECEPTOR ANTAGONISTS FOR TREATING CHEMOTHERAPY-INDUCED NAUSEA AND VOMITING (CINV)” (priority 2022, published 2026)

Experiments:
[1] = test system: nausea induced by cisplatin or cyclophosphamide in the rat; experiment: Gaping events as index of nausea induced by cisplatin or cyclophosphamide; format: in vivo; conditions: 3 mg/kg oral 6 hrs before cisplatin (6 mg/kg i.p.) or cyclophosphamide (40 mg/kg i.p.), monitored for 4 hrs
Experimental: It is known that the induction of nausea by a chemical can be evaluated in rats measuring repetitive mouth opening (the so called “gaping”) (Autonomic Neuroscience, 2006, 129, 36-41). We have therefore evaluated the effects of rimegepant, ubrogepant, atogepant and zavegepant (3 mg/kg) on gaping prompted in rats by the anticancer drugs cisplatin (6 mg/kg, i.p.) or cyclophosphamide (40 mg/kg, i.p.). These drugs have been injected 6 hrs after the oral administration of the gepants to allow complete tissue drug absorption and distribution. Gaping was monitored for 4 hrs.
FIG. 2. Effects of gepants on nausea induced by cisplatin or cyclophosphamide in the rat. Rats (10 animals/group) received rimegepant, ubrogepant, atogepant and zavegepant orally (3 mg/kg) 6 hrs before an intraperitoneal injection of cisplatin (6 mg/kg) or cyclophosphamide (40 mg/kg). The number of gaping events were evaluated for 4 hrs as an index of nausea.

[2] = Accumulation of gepants in trigeminal ganglion and cerebral cortex after oral administration (LC/MS of tissue extracts); format: in vivo; conditions: rat, 3 mg/kg oral, 6 hrs after administration, transcardially perfused 10 min
Experimental: Animals have been transcardially perfused with cold saline for 10 min in order to remove blood contamination and the possible presence of gepants present in plasma. Upon perfusion, tissue specimens form the cerebral cortex (a region beyond the blood brain barrier) and from the trigeminal ganglion (a region before the blood brain barrier) have been collected and extracted with 10 volumes (weight/volume) of a solution of water/acetonitrile (50%/50%). Tissue extracts have been injected in a LC/MS apparatus to reveal the possible presence of the orally-administered gepants.
FIG. 1. Evaluation of the ability of gepants to accumulate within the trigeminal ganglion and cerebral cortex upon oral administration in the rat. […] Animals have been transcardially perfused for 10 min to remove contamination by gepants present in plasma.

[3] = test system: vomiting induced by cisplatin or cyclophosphamide in the shrew; experiment: Vomiting events induced by cisplatin or cyclophosphamide; format: in vivo, shrew (Suncus Murinus); conditions: 3 mg/kg oral 6 hrs before cisplatin (6 mg/kg i.p.) or cyclophosphamide (40 mg/kg i.p.), monitored for 4 hrs
Experimental: Specifically, we have evaluated the effects of the oral administration of rimegepant, ubrogepant, atogepant and zavegepant (3 mg/kg) on vomiting events induced in the shrew by cisplatin (6 mg/kg i.p.) or cyclophosphamide (40 mg/kg i.p.). To allow complete gepant absorption and tissue distribution, cisplatin and cyclophosphamide have been administered 6 hrs after the gepants and animals monitored for 4 hrs.
FIG. 3. Effects of gepants on vomiting induced by cisplatin or cyclophosphamide in the shrew. Shrews (10 animals/group) have been orally administered with rimegepant, ubrogepant, atogepant and zavegepant (3 mg/kg) 6 hrs before the intraperitoneal injection of cisplatin (6 mg/kg) or cyclophosphamide (40 mg/kg) and the number of vomiting events evaluated for 4 hrs.

presence in brain cortex extracts [2] | presence in trigeminal ganglion extracts [2] | Structure (SMILES) | number of gaping events (index of nausea) compared to controls [1] | number of vomiting events compared to controls [3]
detectable | detectable | C[C@@H]1[C@H](c2c(F)ccc(F)c2F)C[C@H](NC(=O)c2cnc3c(c2)C[C@@]2(C3)C(=O)Nc3ncccc32)C(=O)N1CC(F)(F)F [atogepant] | reduced number of gaping events | reduced number of vomiting events
detectable | detectable | N[C@@H]1c2cccnc2[C@H](OC(=O)N2CCC(n3c(=O)[nH]c4ncccc43)CC2)CC[C@H]1c1cccc(F)c1F [rimegepant] | reduced number of gaping events | reduced number of vomiting events
detectable | detectable | C[C@@H]1[C@H](c2ccccc2)C[C@H](NC(=O)c2cnc3c(c2)C[C@@]2(C3)C(=O)Nc3ncccc32)C(=O)N1CC(F)(F)F [ubrogepant] | reduced number of gaping events | reduced number of vomiting events
detectable | detectable | Cc1cc(C[C@@H](NC(=O)N2CCC(c3cc4ccccc4[nH]c3=O)CC2)C(=O)N2CCN(C3CCN(C)CC3)CC2)cc2cn[nH]c12 [zavegepant] | reduced number of gaping events | reduced number of vomiting events
